Experimental data from ChEMBL document CHEMBL1127695, “Rational modification of human synovial fluid phospholipase A2 inhibitors” (J Med Chem, 1994).

Columns and labels:
[1] = biological target: T1, Phospholipase A2, membrane associated (Homo sapiens) (UniProt P14555); experiment: Tested for the inhibition of human synovial fluid enzyme phospholipase A2 (PLA2); conditions: concentration not given here
T1 sequence (whole entry): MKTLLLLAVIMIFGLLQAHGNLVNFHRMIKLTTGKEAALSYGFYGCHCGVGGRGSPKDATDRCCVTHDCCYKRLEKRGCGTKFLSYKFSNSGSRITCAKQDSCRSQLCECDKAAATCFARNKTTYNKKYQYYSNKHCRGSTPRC

[2] = biological target: Phospholipase A2, major isoenzyme (Sus scrofa) (UniProt P00592); experiment: Tested for the inhibition of porcine pancreatic enzyme; conditions: concentration not given here
Phospholipase A2, major isoenzyme (Sus scrofa), sequence (P00592 23-146 limits assumed): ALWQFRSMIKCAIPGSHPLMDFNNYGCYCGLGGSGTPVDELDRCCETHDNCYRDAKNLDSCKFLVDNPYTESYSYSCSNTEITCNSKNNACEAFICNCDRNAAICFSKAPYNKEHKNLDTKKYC

[3] = biological target: T1, Phospholipase A2, membrane associated (Homo sapiens); experiment: Tested for the inhibition of human synovial fluid phospholipase A2

Compound	inhibition [1]	inhibition [2]	X1(50) (mole fraction) [3]
CCCCCCCCCCS(=O)(=O)NC(CCCCCC)COP(=O)(O)OCCO (stereo not drawn)	66%	43%	–
CCCCCCCCOC[C@H](COP(=O)(O)OCCN)OP(=O)(O)CCCCCCC	–	–	0.025
